Consider one compound from patent publication US20030068613A1, “Method for studying regeneration in biological material” (priority 2000, published 2003).

SMILES strings stand for the structures.

This assay deals with organotypic cortical co-cultures. Kind of assay: Correlated activity (regeneration of functional connections) in organotypic cortical co-cultures on micro-electrode arrays. The settings on record: 50 nM in culture medium from 0 DIV, re-administered with each medium change up to 14 DIV; after 14 days in vitro; n=18; untreated control ca. 60% (n=28). The assay is classed as cell-based, Wistar rats. How it is done: Organotypic cortical co-cultures (350-425 μm thick from the neocortex) were prepared from three-day-old to seven-day-old Wistar rats of both sexes and were maintained in vitro using the roller tube technique; on this point see Gähwiler, Organotypic Monolayer Cultures of Nervous Tissue, J. NEUROSCIENCE METHODS, 1981, volume 4, pages 329-342. The co-cultures were allowed to grow for up to 35 days either on glass cover plates or on micro-electrode arrays in medium which contained 50% Eagle's basic medium, 25% Hanks-buffered saline solution, 25% horse serum, 33 mM D-glucose and 1 mM L-glutamine. The medium was replaced twice a week, and the co-culture explants were positioned relative to one another with varied orientations and varied distances (0 to 500 μm).
The explants cultured on micro-electrode arrays were recorded at different times for spontaneous electrical activity, at the earliest after 4 DIV (days in vitro) and at the latest 35 DIV in normal culture medium at a temperature of 35° C. Using a multi-channel recording system, the 60 micro-electrodes could be recorded simultaneously, as a result of which it was possible to test correlated activity in the co-cultures. […] The electrodes had impedances of 100 to 300 kΩ (at 1 kHz), a spacing of 500 μm and a diameter of 10 μ. The activity was recorded at 10 to 25 kHz per channel, stored, and analyzed offline in respect of latency. […]

`C=CC[C@@H]1/C=C(\C)C[C@H](C)C[C@H](OC)[C@H]2O[C@@](O)(C(=O)C(=O)N3CCCC[C@H]3C(=O)O[C@H](/C(C)=C/[C@@H]3CC[C@@H](O)[C@H](OC)C3)[C@H](C)[C@@H](O)CC1=O)[C@H](C)C[C@@H]2OC` [FK506]: the “correlated activity (share of explants showing correlation)” value is approximately 90%.
